In brackets after ≈: the same amount, converted by molar mass. Like-named read-outs stand apart in the source and are kept apart here. Numbered stars: 1 amine (or outer) side, 2 acyl side, 3 side chain; on linkers, the order of the positions; unused ones are H or OH. Square brackets hold non-standard residues; d marks the D form. Peptide text beside a SMILES is read from it. X19 = C[C@H](CCN1CCCC(C(F)(F)F)C1)[C@@H](O)[C@H](C(=O)[*:2])N(C)[*:1]; X30 = C[C@H](CCN(C)Cc1nnn[nH]1)[C@@H](O)[C@H](C(=O)[*:2])N(C)[*:1]; X17 = C[C@H](CCN(C)CCc1ccccn1)[C@@H](O)[C@H](C(=O)[*:2])N(C)[*:1]; X12 = C[C@H](CCN(C)Cc1ccncc1)[C@@H](O)[C@H](C(=O)[*:2])N(C)[*:1]; X24 = C[C@H](CCN(C)CC1COCCO1)[C@@H](O)[C@H](C(=O)[*:2])N(C)[*:1]; X7 = C[C@H](CCN(C)Cc1ccnn1C)[C@@H](O)[C@H](C(=O)[*:2])N(C)[*:1]; X34 = C[C@H](CCN1CCN(C)CC1)[C@@H](O)[C@H](C(=O)[*:2])N(C)[*:1]; d(aThr) = C[C@@H](O)[C@@H](N)C(=O)O; NMeL = CN[C@@H](CC(C)C)C(=O)O; dNMeL = CN[C@H](CC(C)C)C(=O)O; dNMeV = CN[C@@H](C(=O)O)C(C)C; Hiv = CC(C)[C@H](O)C(=O)O; Sar = CNCC(=O)O
Experiments:
[1] = Water solubility assay (pH 7.8 buffer); format: physicochemical
Protocol: ***Water Solubility Assay (Measured in pH 7.8 Buffer)
The onset of precipitation, if it occurred, was detected by an increase in absorbance at 650 nm.
Assay Buffer: 35 mM HEPES pH 7.8
Stock solutions of Control and Test Compounds: 10 mM in 100% DMSO
10 mM stock solutions of control and test compounds were prepared in 100% DMSO. A series of dilutions were prepared from the stock in DMSO so that the final concentrations in the assay were 0, 3.33, 10, 25, 50, 75 and 100 μM and DMSO was limited to 1%.
Assay buffer (247.5 μl) was placed into flat bottomed transparent 96-well plate. For blank samples DMSO (2.5 μl) was added. For test and control samples 2.5 μl of the appropriate DMSO dilution stocks were added to the appropriate well. All test and control compounds were performed in triplicate.
The plates were sealed with adhesive plate seal and shaken at 250 rpm at 25° C. for 18 h on a plate shaker.
After incubation the plate seals were taken off and any bubbles observed in wells removed. The plates were read on a SpectraMaxM5 with a 5 s pre-shake at 650 nm.
Data files were transferred to the appropriate worksheet and the solubility range of the compounds was calculated from the data.
The values shown in the tables indicate the concentration in μM (micromolar) at which the compound remains in solution.

cyclophilin D (Cyp D) = cyclophilin D (Cyp D) (Homo sapiens, UniProt P30405); test: Protease-free PPIase assay, cyclophilin D; format: biochemical
Sequence of cyclophilin D (Cyp D) (P30405 30-207): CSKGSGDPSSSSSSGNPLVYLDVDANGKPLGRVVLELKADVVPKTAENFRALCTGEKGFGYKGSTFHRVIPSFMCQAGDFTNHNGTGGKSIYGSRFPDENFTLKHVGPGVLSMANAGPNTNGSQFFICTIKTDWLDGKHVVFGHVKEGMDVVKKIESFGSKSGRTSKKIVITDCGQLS
Protocol: (§1) The protease-free PPIase assay measures the rate of cis to trans conversion of a peptide substrate catalyzed by the enzymes cyclophilin A and cyclophilin D. Addition of a cyclophilin inhibitor (e.g., a test compound) slows the catalyzed rate and a Ki value is obtained. […] 35 mM HEPES pH 7.8, filtered through a 0.2 μm filter. 50 μM DTT was added prior to use each day and then the buffer was stored on ice. Succinimide-[…]) (from Bachem AG, L-1400), 20 mg/ml prepared in 0.5 M LiCl in trifluoroethanol. All readings were taken with an Agilent 8453 Spectrophotometer which consists of a cuvette holder, stirrer and chiller to maintain a stirred cuvette temperature of 10.0±0.1° C. The temperature is monitored by the use of temperature probe. […] The inhibitor was diluted in 100% DMSO, and then added to the assay to a maximum final concentration of 0.5% DMSO in the assay. A blank spectrum was obtained, then 3 μL of enzyme was added (2 nM final concentration) and then 3 μL substrate (60 μM final concentration) added. The absorbance was measured at 330 nm for 300 s or 500 s for blank runs (NOTE: the substrate must be added in one quick injection and the measurements started immediately to minimize mixing errors). A first order rate equation was fitted to the absorbance data, for each concentration of inhibitor, to obtain the rate constant (the first 10 to 15 seconds were excluded as mixing causes errors in this portion of curve). The catalytic rate was calculated from the enzymatic rate constant minus the background rate constant. An exponential curve was generated using the catalytic rate constants versus the inhibitor concentration to obtain the Ki value for the inhibitor. The Ki value is indicative of the binding affinity between the test compound and cyclophilin A or cyclophilin D.

cyclophilin A (Cyp A) = molecular target: T1, cyclophilin A (Cyp A) (Homo sapiens, UniProt P62937); test: Protease-free PPIase assay, cyclophilin A; format: biochemical
T1 construct: purchased Sigma C3805
T1 sequence (P62937 whole entry): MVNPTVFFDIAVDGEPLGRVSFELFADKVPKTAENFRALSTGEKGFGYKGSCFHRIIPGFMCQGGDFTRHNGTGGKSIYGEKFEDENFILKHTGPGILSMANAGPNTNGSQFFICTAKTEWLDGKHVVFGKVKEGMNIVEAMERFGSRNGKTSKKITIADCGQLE
Protocol: as §1, with “ice. Human recombinant cyclophilin A (Cyp A) (Sigma C3805) enzyme was diluted to 1 μM with enzyme dilution buffer (20 mM HEPES pH 7.8, 40% glycerol, 50 μM DTT and 1 μM BSA) and stored at -20° C.” for “ice.”

[2] = 35 mM HEPES buffer, 35 mM HEPES pH 7.8, 1% DMSO, 25° C., 18 h, concentration at which compound remains in solution, read-out: Solubility
[3] = protease-free PPIase assay, class symbols, read-out: CypD Ki
[4] = protease-free PPIase assay, class symbols, read-out: CypA Ki

SMILES	solubility at 18 h ([1]; pH 7.8) [µM]	Ki (cyclophilin D (Cyp D)) [nM]	Ki (cyclophilin A (Cyp A)) [nM]	solubility at 18 h [1, 2] [µM]	Ki (cyclophilin D (Cyp D); [3]) [nM]	Ki (cyclophilin A (Cyp A); [4]) [nM]
CO[C@H](C)[C@H]1NC(=O)[C@@H]([C@H](O)[C@H](C)CCN2CCOCC2)N(C)C(=O)[C@@H](C(C)C)N(C)C(=O)[C@@H](CC(C)C)NC(=O)[C@@H](CC(C)C)N(C)C(=O)[C@H](C(C)C)OC(=O)[C@@H](C)NC(=O)[C@@H](CC(C)C)N(C)C(=O)[C@@H](CC(C)C)NC(=O)[C@H](CC(C)C)N(C)C(=O)CN(C)C1=O (stereo in doubt) [Example 7, cyclo-[(3R,4R,5S)-4-(hydroxy)-3-methyl-5-(methylamino)-1-N-morpholino-hexanoic acid-(O-methyl-Thr)-Sar-MeLeu-Leu-MeLeu-Ala-D-Hiv-MeLeu-Leu-MeVal]]	50 to 75 (≈ 66 to 99.1 µg/mL)	1 to 25	25 to 100	–	–	–
CC(C)C[C@@H]1C(=O)N[C@H](CC(C)C)C(=O)N(C)[C@H](C(C)C)C(=O)N(C)[C@H]([C@H](O)[C@H](C)CCN(C)Cc2ccncc2)C(=O)N[C@H]([C@@H](C)O)C(=O)N(C)CC(=O)N(C)[C@@H](CC(C)C)C(=O)N[C@H](CC(C)C)C(=O)N(C)[C@H](CC(C)C)C(=O)N[C@H](C)C(=O)O[C@@H](C(C)C)C(=O)N1C [Example 3, cyclo-[(3R,4R,5S)-4-(hydroxy)-3-methyl-5-(methylamino)-1-N-(methyl-pyridin-4-ylmethyl-amino)-hexanoic acid-Thr-Sar-MeLeu-Leu-MeLeu-Ala-D-Hiv-MeLeu-Leu-MeVal]] (cyclo([Hiv][dNMeL][dL][dNMeV][X12][d(aThr)][Sar][NMeL][dL][dNMeL][dA]))	–	–	–	50 to 75 (≈ 67.1 to 101 µg/mL)	1 to 25	1 to 25
CC(C)C[C@@H]1C(=O)N[C@H](CC(C)C)C(=O)N(C)[C@H](C(C)C)C(=O)N(C)[C@H]([C@H](O)[C@H](C)CCN(C)CCc2ccccn2)C(=O)N[C@H]([C@@H](C)O)C(=O)N(C)CC(=O)N(C)[C@@H](CC(C)C)C(=O)N[C@H](CC(C)C)C(=O)N(C)[C@H](CC(C)C)C(=O)N[C@H](C)C(=O)O[C@@H](C(C)C)C(=O)N1C [Example 4, cyclo-{(3R,4R,5S)-4-(hydroxy)-3-methyl-5-(methylamino)-1-N-[methyl-2-(pyridin-2-yl)-ethyl-amino]-hexanoic acid-Thr-Sar-MeLeu-Leu-MeLeu-Ala-D-Hiv-MeLeu-Leu-MeVal}] (cyclo([Hiv][dNMeL][dL][dNMeV][X17][d(aThr)][Sar][NMeL][dL][dNMeL][dA]))	–	–	–	25 to 50 (≈ 33.9 to 67.8 µg/mL)	1 to 25	1 to 25
CC(C)C[C@@H]1C(=O)N[C@H](CC(C)C)C(=O)N(C)[C@H](C(C)C)C(=O)N(C)[C@H]([C@H](O)[C@H](C)CCN(C)Cc2ccnn2C)C(=O)N[C@H]([C@@H](C)O)C(=O)N(C)CC(=O)N(C)[C@@H](CC(C)C)C(=O)N[C@H](CC(C)C)C(=O)N(C)[C@H](CC(C)C)C(=O)N[C@H](C)C(=O)O[C@@H](C(C)C)C(=O)N1C [Example 5, cyclo-{(3R,4R,5S)-4-(hydroxy)-3-methyl-5-(methylamino)-1-N-[methyl-(2-methyl-2H-pyrazol-3-ylmethyl)-amino]-hexanoic acid-Thr-Sar-MeLeu-Leu-MeLeu-Ala-D-Hiv-MeLeu-Leu-MeVal}] (cyclo([Hiv][dNMeL][dL][dNMeV][X7][d(aThr)][Sar][NMeL][dL][dNMeL][dA]))	–	–	–	50 to 75 (≈ 67.2 to 101 µg/mL)	1 to 25	1 to 25
CC(C)C[C@@H]1C(=O)N[C@H](CC(C)C)C(=O)N(C)[C@H](C(C)C)C(=O)N(C)[C@H]([C@H](O)[C@H](C)CCN(C)Cc2nnn[nH]2)C(=O)N[C@H]([C@@H](C)O)C(=O)N(C)CC(=O)N(C)[C@@H](CC(C)C)C(=O)N[C@H](CC(C)C)C(=O)N(C)[C@H](CC(C)C)C(=O)N[C@H](C)C(=O)O[C@@H](C(C)C)C(=O)N1C [Example 6, cyclo-{(3R,4R,5S)-4-(hydroxy)-3-methyl-5-(methylamino)-1-N-[methyl-(1H-tetrazol-5-ylmethyl)-amino]-hexanoic acid-Thr-Sar-MeLeu-Leu-MeLeu-Ala-D-Hiv-MeLeu-Leu-MeVal}] (cyclo([Hiv][dNMeL][dL][dNMeV][X30][d(aThr)][Sar][NMeL][dL][dNMeL][dA]))	25 to 50 (≈ 33.3 to 66.6 µg/mL)	1 to 25	1 to 25	–	–	–
CC(C)C[C@@H]1C(=O)N[C@H](CC(C)C)C(=O)N(C)[C@H](C(C)C)C(=O)N(C)[C@H]([C@H](O)[C@H](C)CCN(C)CC2COCCO2)C(=O)N[C@H]([C@@H](C)O)C(=O)N(C)CC(=O)N(C)[C@@H](CC(C)C)C(=O)N[C@H](CC(C)C)C(=O)N(C)[C@H](CC(C)C)C(=O)N[C@H](C)C(=O)O[C@@H](C(C)C)C(=O)N1C (stereo partly drawn) [Example 8, cyclo-{(3R,4R,5S)-4-(hydroxy)-3-methyl-5-(methylamino)-1-N-([1,4]dioxan-2-ylmethyl-methyl-amino)-hexanoic acid-Thr-Sar-MeLeu-Leu-MeLeu-Ala-D-Hiv-MeLeu-Leu-MeVal}] (cyclo([Hiv][dNMeL][dL][dNMeV][X24][d(aThr)][Sar][NMeL][dL][dNMeL][dA]))	–	–	–	> 100	1 to 25	25 to 100
CC(C)C[C@@H]1C(=O)N[C@H](CC(C)C)C(=O)N(C)[C@H](C(C)C)C(=O)N(C)[C@H]([C@H](O)[C@H](C)CCN2CCCC(C(F)(F)F)C2)C(=O)N[C@H]([C@@H](C)O)C(=O)N(C)CC(=O)N(C)[C@@H](CC(C)C)C(=O)N[C@H](CC(C)C)C(=O)N(C)[C@H](CC(C)C)C(=O)N[C@H](C)C(=O)O[C@@H](C(C)C)C(=O)N1C (stereo partly drawn) [Example 9, cyclo-{(3R,4R,5S)-4-(hydroxy)-3-methyl-5-(methylamino)-1-N-[3-trifluoromethyl-piperidinyl]-hexanoic acid-Thr-Sar-MeLeu-Leu-MeLeu-Ala-D-Hiv-MeLeu-Leu-MeVal}] (cyclo([Hiv][dNMeL][dL][dNMeV][X19][d(aThr)][Sar][NMeL][dL][dNMeL][dA]))	–	–	–	10 to 25 (≈ 13.7 to 34.3 µg/mL)	1 to 25	1 to 25
CC(C)C[C@@H]1C(=O)N[C@H](CC(C)C)C(=O)N(C)[C@H](C(C)C)C(=O)N(C)[C@H]([C@H](O)[C@H](C)CCN2CCN(C)CC2)C(=O)N[C@H]([C@@H](C)O)C(=O)N(C)CC(=O)N(C)[C@@H](CC(C)C)C(=O)N[C@H](CC(C)C)C(=O)N(C)[C@H](CC(C)C)C(=O)N[C@H](C)C(=O)O[C@@H](C(C)C)C(=O)N1C [Example 32, cyclo-[(3R,4R,5S)-4-(hydroxy)-3-methyl-5-(methylamino)-1-N—(N′-methylpiperazine)-hexanoic acid-Thr-Sar-MeLeu-Leu-MeLeu-Ala-D-Hiv-MeLeu-Leu-MeVal]] (cyclo([Hiv][dNMeL][dL][dNMeV][X34][d(aThr)][Sar][NMeL][dL][dNMeL][dA]))	–	25 to 100	100 to 300	–	–	–

— patent US9382295B2, “Cyclic depsipeptide compounds and their uses” (Cypralis Limited, priority 2012, dated 2016)
